Data on 3 compounds can be found in US20220323406A1, “METHODS AND COMPOSITIONS FOR DIFFERENTIATING STEM CELLS” (Massachusetts Institute of Technology, priority 2019, published 2022).

In assay [1] the test system is ENR+CD organoids (ISC to Paneth cell differentiation). Put plainly: Primary screen: basal (non-stimulated) lysozyme secretion LYZ.NS, 2.5-D 384-well ENR+CD organoid differentiation. The format is cell-based, mouse. The settings on record: primary screen; for Z.LYZ.NS: standard z score; for Dose.FC.LYZ.NS: FC vs plate median. An excerpt: (§1) High-throughput screening.

The test system is the same in assay [2]. Briefly: Primary screen: CCh-stimulated lysozyme secretion LYZ.S, 2.5-D 384-well ENR+CD organoid differentiation. The format is cell-based, mouse. The note with it: primary screen; for Dose.FC.LYZ.S: FC vs plate median.
Source text: as §1

A further assay has as its system ENR+CD organoids. Briefly: Primary screen: ATP (CellTiter-Glo 3D, CTG) cell number/viability, 2.5-D 384-well ENR+CD organoids.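 On all read-outs here: compounds given at plating and again on day 3 over a 6-day differentiation from ENR+CV stem-cell-enriched precursors, ATP measured on day 6, plate median as control.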 The settings on record: primary screen; for Z.CTG: standard z score; for Dose.FC.CTG: FC vs plate median. In general terms: In ATP-based viability assays light output follows the ATP content of the culture.

As for `CNC(=O)[C@H](Cc1c[nH]c2ccccc12)NC(=O)[C@@H](CC(=O)NO)CC(C)C` [Ilomastat (GM6001, Galardin)], the “Dose.FC.LYZ.NS (log2 fold change)” value in assay [1] (dose 0.08 uM) is recorded as 0.055; in assay [1] (dose 0.40 uM), −0.011; in assay [1] (dose 2.00 uM), 0.007; in assay [1] (dose 10.00 uM), −0.106. In addition, the “Z.LYZ.NS (standard z score)” value in assay [1] (dose 0.08 uM) is recorded as 0.482; in assay [1] (dose 0.40 uM) it was −0.092; in assay [1] (dose 2.00 uM), 0.064; in assay [1] (dose 10.00 uM) it was −0.919. For the same compound, the “Dose.FC.LYZ.S (log2 fold change)” value is reported as 0.214 in assay [2] (dose 0.08 uM), 0.117 in assay [2] (dose 0.40 uM), 0.024 in assay [2] (dose 2.00 uM) and −0.078 in assay [2] (dose 10.00 uM). In addition, the “Dose.FC.CTG (log2 fold change)” value is given as 0.197 in the assay with ENR+CD organoids (dose 0.08 uM), 0.163 with ENR+CD organoids (dose 0.40 uM), 0.091 in the assay with ENR+CD organoids (dose 2.00 uM) and −0.110 in the assay with ENR+CD organoids (dose 10.00 uM). In addition, the “Z.CTG (standard z score)” value with ENR+CD organoids (dose 0.08 uM) was 0.470; in the assay with ENR+CD organoids (dose 0.40 uM), 0.389; in the assay on ENR+CD organoids (dose 2.00 uM) it was 0.216; in the assay with ENR+CD organoids (dose 10.00 uM), −0.264.

Regarding `C[C@]1(O)C[C@@H](c2nc(-c3ccc4ccc(-c5ccccc5)nc4c3)c3c(N)nccn32)C1` [OSI-906 (Linsitinib)], the Z.LYZ.NS in assay [1] (dose 0.08 uM) is given as 0.110; in assay [1] (dose 0.40 uM) it was −0.806; in assay [1] (dose 2.00 uM), −1.882; in assay [1] (dose 10.00 uM), −1.996. The Dose.FC.LYZ.NS is on record as 0.013 log2 fold change in assay [1] (dose 0.08 uM), −0.093 log2 fold change in assay [1] (dose 0.40 uM), −0.216 log2 fold change in assay [1] (dose 2.00 uM) and −0.229 log2 fold change in assay [1] (dose 10.00 uM). In addition, the Dose.FC.LYZ.S is −0.026 log2 fold change in assay [2] (dose 0.08 uM), −0.119 log2 fold change in assay [2] (dose 0.40 uM), −0.288 log2 fold change in assay [2] (dose 2.00 uM) and −0.328 log2 fold change in assay [2] (dose 10.00 uM). The Z.CTG was −0.775 in the assay on ENR+CD organoids (dose 0.08 uM), −0.377 with ENR+CD organoids (dose 0.40 uM), −0.661 with ENR+CD organoids (dose 2.00 uM) and −0.934 with ENR+CD organoids (dose 10.00 uM). Also, the Dose.FC.CTG in the assay with ENR+CD organoids (dose 0.08 uM) was −0.324 log2 fold change; in the assay on ENR+CD organoids (dose 0.40 uM) it was −0.158 log2 fold change; with ENR+CD organoids (dose 2.00 uM), −0.277 log2 fold change; with ENR+CD organoids (dose 10.00 uM), −0.391 log2 fold change.

In the case of `CC(C)(C)c1cc(C(C)(C)C)c(NC(=O)c2c[nH]c3ccccc3c2=O)cc1O` [Ivacaftor (VX-770)], the “Dose.FC.LYZ.NS (log2 fold change)” value is listed as 0.099 in assay [1] (dose 0.08 uM), 0.127 in assay [1] (dose 0.40 uM), 0.082 in assay [1] (dose 2.00 uM) and −0.142 in assay [1] (dose 10.00 uM). Also, the “Z.LYZ.NS (standard z score)” value was 0.864 in assay [1] (dose 0.08 uM), 1.109 in assay [1] (dose 0.40 uM), 0.717 in assay [1] (dose 2.00 uM) and −1.240 in assay [1] (dose 10.00 uM). The “Dose.FC.LYZ.S (log2 fold change)” value in assay [2] (dose 0.08 uM) is listed as 0.132; in assay [2] (dose 0.40 uM) it was 0.189; in assay [2] (dose 2.00 uM), 0.019; in assay [2] (dose 10.00 uM) it was −0.253. Moreover, the “Dose.FC.CTG (log2 fold change)” value with ENR+CD organoids (dose 0.08 uM) was 0.234; in the assay on ENR+CD organoids (dose 0.40 uM), 0.145; in the assay with ENR+CD organoids (dose 2.00 uM), −0.148; in the assay on ENR+CD organoids (dose 10.00 uM) it was −0.470. For the same compound, the “Z.CTG (standard z score)” value with ENR+CD organoids (dose 0.08 uM) is 0.558; in the assay on ENR+CD organoids (dose 0.40 uM), 0.347; in the assay on ENR+CD organoids (dose 2.00 uM), −0.354; in the assay on ENR+CD organoids (dose 10.00 uM), −1.123.
